According to patent US5840684A, “Glycopeptide antibiotic derivatives” (Eli Lilly and Company, priority 1995, dated 1998):
Values after ≈ are worked out from the molar mass of the structure shown.

Experiments:
[1] = test system: Staphylococcus aureus S13E; format: cell-based
Protocol: (§1) The MIC's were determined using a standard broth micro-dilution assay.

[2] = test system: Entercoccus faecium 180-1; test: broth micro-dilution MIC; format: cell-based
Protocol: as §1

Entercoccus faecium 276 = test: broth micro-dilution MIC; format: cell-based
Protocol: as §1

[3] = test system: Staphylococcus aureus 446; test: broth micro-dilution MIC; format: cell-based
Protocol: as §1

[4] = test system: Staphylococcus aureus 447; test: broth micro-dilution MIC; format: cell-based
Protocol: as §1

[5] = test system: Staphylococcus aureus 489; test: broth micro-dilution MIC; format: cell-based
Protocol: as §1

[6] = test system: Staphylococcus aureus 491; test: broth micro-dilution MIC; format: cell-based
Protocol: as §1

[7] = test system: Staphylococcus aureus SA1199A; test: broth micro-dilution MIC; format: cell-based
Protocol: as §1

[8] = test system: Staphylococcus aureus SA1199; test: broth micro-dilution MIC; format: cell-based
Protocol: as §1

[9] = test system: Staphylococcus aureus X400; test: broth micro-dilution MIC; format: cell-based
Protocol: as §1

[10] = test system: Staphylococcus aureus X778; test: broth micro-dilution MIC; format: cell-based
Protocol: as §1

[11] = test system: Streptococcus pyogenes C203; test: broth micro-dilution MIC; format: cell-based
Protocol: as §1

Entercoccus faecium 180 = test: broth micro-dilution MIC; format: cell-based; conditions: Entercoccus faecium 180
Protocol: (§2) The formula I compounds have in vitro and in vivo activity against Gram-positive pathogenic bacteria. The MIC's were determined using a standard broth micro-dilution assay.

Entercoccus faecium 2041 = test: broth micro-dilution MIC; format: cell-based; conditions: Entercoccus faecium 2041
Protocol: as §2

[12] = test system: Enterococcus gallinarum 245; test: broth micro-dilution MIC; format: cell-based; conditions: Enterococcus gallinarum 245
Protocol: as §2

[13] = test system: Staphylococcus haemolyticus 105; test: broth micro-dilution MIC; format: cell-based
Protocol: as §2

[14] = test system: Staphylococcus haemolyticus 415; test: broth micro-dilution MIC; format: cell-based
Protocol: as §2

[15] = test system: Streptococcus pneumoniae P1; test: broth micro-dilution MIC; format: cell-based
Protocol: as §2

Stapylococcus aureus = test: mouse protection, experimentally-induced infection; format: in vivo; conditions: mice infected with Stapylococcus aureus, two doses
Streptococcus pyogenes = test: mouse protection, experimentally-induced infection; format: in vivo; conditions: mice infected with Streptococcus pyogenes, two doses
Streptococcus pneumoniae = test: mouse protection, experimentally-induced infection; format: in vivo; conditions: mice infected with Streptococcus pneumoniae, two doses
[16] = test system: vancomycin-resistant enterococci; test: broth micro-dilution, mean geometric MIC; format: cell-based, Enterococcus faecium and Enterococcus faecalis; conditions: enterococci, 24-hour incubation
[17] = test system: vancomycin-susceptible enterococci; test: broth micro-dilution, mean geometric MIC; format: cell-based, Enterococcus faecium and Enterococcus faecalis; conditions: enterococci, 24-hour incubation
Pediococcus acidilacti = test: agar dilution MIC, lactic acid bacteria; format: cell-based; conditions: Pediococcus acidilacti (mean of 10), brain-heart infusion agar
Pediococcus pentosaceus = test: agar dilution MIC, lactic acid bacteria; format: cell-based; conditions: Pediococcus pentosaceus (mean of 2), brain-heart infusion agar
Leuconostoc lactis = test: agar dilution MIC, lactic acid bacteria; format: cell-based; conditions: Leuconostoc lactis (mean of 2), brain-heart infusion agar
[18] = test system: Leuconostoc pseudomesenteroides; test: agar dilution MIC, lactic acid bacteria; format: cell-based; conditions: brain-heart infusion agar
Leuconostoc citreum = test: agar dilution MIC, lactic acid bacteria; format: cell-based; conditions: brain-heart infusion agar
[19] = test system: Staphylococcus aureus SA1199B; format: cell-based
Protocol: as §1

[20] = test system: Staphylococcus epidermidis 270; test: broth micro-dilution MIC; format: cell-based
Protocol: as §2

[21] = test system: Leuconostoc mesenteroides; test: agar dilution MIC, lactic acid bacteria; format: cell-based; conditions: Leuconostoc mesenteroides (mean of 4), brain-heart infusion agar
Lactobacillus confusus = test: agar dilution MIC, lactic acid bacteria; format: cell-based; conditions: Lactobacillus confusus, brain-heart infusion agar

Row | SMILES | MIC [1] | MIC [2] | MIC (Entercoccus faecium 276) | MIC [7] | MIC [8] | MIC [9] | MIC [11] | MIC (Entercoccus faecium 2041) | MIC [12] | MIC [13] | MIC [14] | MIC [15] | ED50 (Stapylococcus aureus) | ED50 (Streptococcus pyogenes) | ED50 (Streptococcus pneumoniae) | mean geometric MIC, Vancomycin Resistant Strains [16] | mean geometric MIC, Vancomycin Sensitive Strains [17] | MIC (Pediococcus acidilacti) | MIC (Pediococcus pentosaceus) | MIC (Leuconostoc lactis) | further results
1 | CNC(CC(C)C)C(=O)NC1C(=O)NC(CC(N)=O)C(=O)NC2C(=O)NC3C(=O)NC(C(=O)NC(C(=O)O)c4cc(O)cc(O)c4-c4cc3ccc4O)C(OC3CC(C)(N)C(O)C(C)O3)c3ccc(c(Cl)c3)Oc3cc2cc(c3OC2OC(CO)C(O)C(O)C2OC2CC(C)(NCc3ccc4ccccc4c3)C(O)C(C)O2)Oc2ccc(cc2Cl)C1O (stereo not shown) [Compound 1] | 0.125 mg/L (≈ 0.0721 µM) | ≤ 0.06 mg/L | ≤ 0.06 mg/L | ≤ 0.06 mg/L | ≤ 0.06 mg/L | ≤ 0.06 mg/L | ≤ 0.06 mg/L | 0.125 mg/L (≈ 0.0721 µM) | 4 mg/L (≈ 2.31 µM) | 4 mg/L (≈ 2.31 µM) | 4 mg/L (≈ 2.31 µM) | ≤ 0.06 mg/L | 0.086 mg/kg/2 | 0.052 mg/kg/2 | 0.025 mg/kg/2 | 0.25 mg/L | 0.0061 mg/L | 18 mg/L (≈ 10.4 µM) | 23 mg/L (≈ 13.3 µM) | 23 mg/L (≈ 13.3 µM) | MIC [3]: ≤ 0.06 mg/L; MIC [4]: ≤ 0.06 mg/L; MIC [5]: ≤ 0.06 mg/L; MIC [6]: 2 mg/L (≈ 1.15 µM); MIC [10]: 0.125 mg/L (≈ 0.0721 µM); MIC (Entercoccus faecium 180): 0.5 mg/L (≈ 0.289 µM); MIC [18]: > 128 mg/L; MIC (Leuconostoc citreum): > 128 mg/L
2 | CNC(CC(C)C)C(=O)NC1C(=O)NC(CC(N)=O)C(=O)NC2C(=O)NC3C(=O)NC(C(=O)NC(C(=O)O)c4cc(O)cc(O)c4-c4cc3ccc4O)C(OC3CC(C)(N)C(O)C(C)O3)c3ccc(c(Cl)c3)Oc3cc2cc(c3OC2OC(CO)C(O)C(O)C2OC2CC(C)(NCc3ccc(-c4ccccc4)cc3)C(O)C(C)O2)Oc2ccc(cc2Cl)C1O (stereo not shown) [Compound 2, p-phenylbenzyl·A82846B] | ≤ 0.06 mg/L | ≤ 0.06 mg/L | 0.5 mg/L (≈ 0.284 µM) | ≤ 0.06 mg/L | 0.5 mg/L (≈ 0.284 µM) | 1 mg/L (≈ 0.569 µM) | ≤ 0.06 mg/L | 0.125 mg/L (≈ 0.0711 µM) | ≤ 0.06 mg/L | 2 mg/L (≈ 1.14 µM) | 1 mg/L (≈ 0.569 µM) | ≤ 0.06 mg/L | 0.27 mg/kg/2 | 0.014 mg/kg/2 | 0.025 mg/kg/2 | 0.044 mg/L | 0.00038 mg/L | 5.9 mg/L (≈ 3.35 µM) | 11 mg/L (≈ 6.25 µM) | 4.0 mg/L (≈ 2.27 µM) | MIC [19]: ≤ 0.06 mg/L; MIC [3]: ≤ 0.06 mg/L; MIC [4]: ≤ 0.06 mg/L; MIC [6]: ≤ 0.06 mg/L; MIC [10]: ≤ 0.06 mg/L; MIC [20]: 8 mg/L (≈ 4.55 µM); MIC [21]: 16 mg/L (≈ 9.1 µM); MIC [18]: 32 mg/L (≈ 18.2 µM); MIC (Lactobacillus confusus): 16 mg/L (≈ 9.1 µM)
3 | CNC(CC(C)C)C(=O)NC1C(=O)NC(CC(N)=O)C(=O)NC2C(=O)NC3C(=O)NC(C(=O)NC(C(=O)O)c4cc(O)cc(O)c4-c4cc3ccc4O)C(OC3CC(C)(N)C(O)C(C)O3)c3ccc(c(Cl)c3)Oc3cc2cc(c3OC2OC(CO)C(O)C(O)C2OC2CC(C)(NCc3ccc(OC(F)(F)F)cc3)C(O)C(C)O2)Oc2ccc(cc2Cl)C1O (stereo not shown) [Compound 6] |  | ≤ 0.06 mg/L | ≤ 0.06 mg/L | ≤ 0.06 mg/L |  |  | ≤ 0.06 mg/L | ≤ 0.06 mg/L | ≤ 0.06 mg/L | 0.5 mg/L (≈ 0.283 µM) | 0.5 mg/L (≈ 0.283 µM) | ≤ 0.06 mg/L | 0.15 mg/kg/2 | 0.013 mg/kg/2 | 0.021 mg/kg/2 | 1.2 mg/L | 0.14 mg/L | 4.3 mg/L (≈ 2.43 µM) | 8.0 mg/L (≈ 4.53 µM) | 8.0 mg/L (≈ 4.53 µM) | MIC [3]: 0.5 mg/L (≈ 0.283 µM); MIC [4]: 0.5 mg/L (≈ 0.283 µM); MIC [21]: 9.5 mg/L (≈ 5.38 µM); MIC [18]: 16 mg/L (≈ 9.06 µM); MIC (Lactobacillus confusus): 16 mg/L (≈ 9.06 µM)
4 | CNC(CC(C)C)C(=O)NC1C(=O)NC(CC(N)=O)C(=O)NC2C(=O)NC3C(=O)NC(C(=O)NC(C(=O)O)c4cc(O)cc(O)c4-c4cc3ccc4O)C(OC3CC(C)(N)C(O)C(C)O3)c3ccc(c(Cl)c3)Oc3cc2cc(c3OC2OC(CO)C(O)C(O)C2OC2CC(C)(NCc3cccc4c3oc3ccccc34)C(O)C(C)O2)Oc2ccc(cc2Cl)C1O (stereo not shown) [Compound 39] | ≤ 0.06 mg/L | ≤ 0.06 mg/L | ≤ 0.06 mg/L |  | ≤ 0.06 mg/L | ≤ 0.06 mg/L | ≤ 0.06 mg/L | ≤ 0.06 mg/L | ≤ 0.06 mg/L | 2 mg/L (≈ 1.13 µM) | 4 mg/L (≈ 2.26 µM) | ≤ 0.06 mg/L | 0.1 mg/kg/2 | 0.045 mg/kg/2 | < 0.031 mg/kg/2 | 1.2 mg/L | 0.09 mg/L | 26 mg/L (≈ 14.7 µM) | 32 mg/L (≈ 18.1 µM) | 32 mg/L (≈ 18.1 µM) | MIC [19]: ≤ 0.06 mg/L; MIC [10]: ≤ 0.06 mg/L; MIC (Entercoccus faecium 180): 0.5 mg/L (≈ 0.282 µM); MIC [21]: 32 mg/L (≈ 18.1 µM); MIC (Lactobacillus confusus): 32 mg/L (≈ 18.1 µM)
5 | CNC(CC(C)C)C(=O)NC1C(=O)NC(CC(N)=O)C(=O)NC2C(=O)NC3C(=O)NC(C(=O)NC(C(=O)O)c4cc(O)cc(O)c4-c4cc3ccc4O)C(OC3CC(C)(N)C(O)C(C)O3)c3ccc(c(Cl)c3)Oc3cc2cc(c3OC2OC(CO)C(O)C(O)C2OC2CC(C)(NCc3ccc(Sc4ccccc4)cc3)C(O)C(C)O2)Oc2ccc(cc2Cl)C1O (stereo not shown) [Compound 108] | 1 mg/L (≈ 0.558 µM) | ≤ 0.06 mg/L | 0.5 mg/L (≈ 0.279 µM) | ≤ 0.06 mg/L | 2 mg/L (≈ 1.12 µM) | 2 mg/L (≈ 1.12 µM) | ≤ 0.06 mg/L | ≤ 0.06 mg/L | ≤ 0.06 mg/L | 2 mg/L (≈ 1.12 µM) | 1 mg/L (≈ 0.558 µM) | ≤ 0.06 mg/L |  | 0.046 mg/kg/2 | 0.041 mg/kg/2 | 0.84 mg/L | 0.04 mg/L | 12 mg/L (≈ 6.7 µM) | 23 mg/L (≈ 12.8 µM) | 8.0 mg/L (≈ 4.47 µM) | MIC [19]: 2 mg/L (≈ 1.12 µM); MIC [3]: 2 mg/L (≈ 1.12 µM); MIC [4]: 0.5 mg/L (≈ 0.279 µM); MIC [21]: 10 mg/L (≈ 5.58 µM); MIC [18]: 32 mg/L (≈ 17.9 µM); MIC (Lactobacillus confusus): 16 mg/L (≈ 8.93 µM)
6 | CN[C@H](CC(C)C)C(=O)N[C@H]1C(=O)N[C@@H](CC(N)=O)C(=O)N[C@H]2C(=O)N[C@H]3C(=O)N[C@H](C(=O)N[C@H](C(=O)O)c4cc(O)cc(O)c4-c4cc3ccc4O)[C@H](O[C@H]3C[C@](C)(N)[C@@H](O)[C@H](C)O3)c3ccc(c(Cl)c3)Oc3cc2cc(c3O[C@@H]2O[C@H](CO)[C@@H](O)[C@H](O)[C@H]2O[C@H]2C[C@](C)(N)[C@@H](O)[C@H](C)O2)Oc2ccc(cc2Cl)[C@H]1O [Compound A82846B, A82846B, reference compound] | 0.125 mg/L (≈ 0.0785 µM) | 0.125 mg/L (≈ 0.0785 µM) | 0.125 mg/L (≈ 0.0785 µM) | ≤ .06 mg/L | 0.125 mg/L (≈ 0.0785 µM) | 0.125 mg/L (≈ 0.0785 µM) |  |  |  | 1 mg/L (≈ 0.628 µM) | 4 mg/L (≈ 2.51 µM) |  | 0.25 mg/kg/2 | 0.12 mg/kg/2 | 0.18 mg/kg/2 | 29 mg/L | 0.22 mg/L | 141 mg/L (≈ 88.5 µM) | > 256 mg/L |  | MIC [19]: 0.125 mg/L (≈ 0.0785 µM); MIC [5]: ≤ .06 mg/L; MIC [10]: 0.125 mg/L (≈ 0.0785 µM); MIC (Entercoccus faecium 180): 8 mg/L (≈ 5.02 µM); MIC [21]: > 256 mg/L; MIC [18]: > 256 mg/L; MIC (Leuconostoc citreum): > 256 mg/L; MIC (Lactobacillus confusus): > 256 mg/L
